Consider 28 compounds from patent US10294212B2 (CURADEV PHARMA PRIVATE LTD., priority 2013, dated 2019).

Test [1] deals with Human indoleamine 2,3-dioxygenase1 (hIDO1) (Homo sapiens (Human), UniProt P14902). Kind of test: In-vitro IDO1 enzyme assay (conversion of L-tryptophan to KYN). Conditions: read-out: IC50 (IDO1) Enz. The test is classed as biochemical. In short, it runs like this: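 Kynurenine formation quantified by HPLC absorbance at 360 nm or LC/MS/MS after TCA quench and 15 min at 65 °C. Reaction: 10 nM N-His hIDO1, 30 μM tryptophan, ascorbate/methylene blue/catalase, pH 6.5 phosphate buffer, 37 °C for 30 min. Inhibition relative to 1% DMSO vehicle, fitted to IC50.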
Chain of Human indoleamine 2,3-dioxygenase1 (hIDO1) (P14902 whole entry): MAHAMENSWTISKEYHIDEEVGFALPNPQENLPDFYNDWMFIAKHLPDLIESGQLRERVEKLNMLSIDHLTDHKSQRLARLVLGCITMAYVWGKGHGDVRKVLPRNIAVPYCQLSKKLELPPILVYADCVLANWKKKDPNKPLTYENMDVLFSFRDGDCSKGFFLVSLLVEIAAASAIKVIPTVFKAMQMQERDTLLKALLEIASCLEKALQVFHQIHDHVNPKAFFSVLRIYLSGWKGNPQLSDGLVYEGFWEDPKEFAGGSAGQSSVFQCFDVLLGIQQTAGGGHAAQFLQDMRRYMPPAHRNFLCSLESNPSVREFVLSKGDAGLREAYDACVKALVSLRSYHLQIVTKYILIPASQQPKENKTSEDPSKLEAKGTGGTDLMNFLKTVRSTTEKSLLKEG

The target in the next test is IDO1 in HeLa cells (Homo sapiens (Human), UniProt P14902). Put plainly: HeLa cell based IDO1 assay (IFNγ-induced, KYN in supernatant). An outline of the steps:
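Kynurenine in the supernatant, quantified by C-18 HPLC with 360 nm absorbance after TCA hydrolysis (65 °C, 15 min), was the read-out. Compounds (typically 10 μM to 1 nM) were added in HBSS containing 80 μM tryptophan to HeLa cells pre-induced overnight with 50 ng/mL IFNγ. IC50 came from nonlinear fits of % inhibition versus 1% DMSO vehicle.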

In test [2] the target is Human TDO (hTDO)-transfected CHO-K1 cells (Homo sapiens (Human), UniProt P48775). Kind of test: CHO-K1 cell based TDO assay. Conditions: hTDO cellular assay. In short, it runs like this:
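Kynurenine output was read by LC/MS/MS after TCA precipitation and 15 min at 65° C. Before that, CHO-K1 cells stably carrying human TDO2 were incubated 2 h with compounds (typically 31 μM to 10 nM) and 80 μM L-tryptophan in HBSS. Decrease versus DMSO vehicle gave percent inhibition, then IC50.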

Chain of Human TDO (hTDO)-transfected CHO-K1 cells (P48775 whole entry): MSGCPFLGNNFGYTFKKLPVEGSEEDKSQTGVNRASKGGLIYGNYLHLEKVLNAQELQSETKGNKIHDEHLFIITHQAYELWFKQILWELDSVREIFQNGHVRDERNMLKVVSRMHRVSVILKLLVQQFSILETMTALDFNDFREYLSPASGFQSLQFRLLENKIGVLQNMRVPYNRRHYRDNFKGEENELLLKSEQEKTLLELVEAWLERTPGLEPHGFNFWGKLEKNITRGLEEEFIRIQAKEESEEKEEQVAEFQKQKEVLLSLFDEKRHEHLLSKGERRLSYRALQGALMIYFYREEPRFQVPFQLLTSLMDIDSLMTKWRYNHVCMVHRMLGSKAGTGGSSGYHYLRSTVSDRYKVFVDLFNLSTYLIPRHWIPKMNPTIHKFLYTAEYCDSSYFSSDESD
Chain of IDO1 in HeLa cells (P14902 whole entry): as the sequence (P14902 whole entry) above

On to `Nc1oc2c(Br)nccc2c1Nc1ccc(F)c(Cl)c1` [Compound 159, 7-Bromo-N^3-(3-chloro-4-fluorophenyl)furo[2,3-c]pyridine-2,3-diamine], for which the IC50 was less than 0.2 µM in test [1], less than 0.2 µM against IDO1 in HeLa cells and less than 0.5 µM in test [2].
Consider `Cc1cc(-c2nccc3c(Nc4ccc(F)c(Cl)c4)c(N)oc23)cc(C)n1` [Compound 164, N^3-(3-Chloro-4-fluorophenyl)-7-(2,6-dimethylpyridin-4-yl)furo[2,3-c]pyridine-2,3-diamine], for which the IC50 in test [1] was less than 0.2 µM; at IDO1 in HeLa cells, less than 0.2 µM; in test [2], greater than 2 µM.
`COc1cc2c(Nc3ccc(F)c(Cl)c3)c(N)oc2c(I)n1` [Compound 167, N^3-(3-Chloro-4-fluorophenyl)-7-iodo-5-methoxyfuro[2,3-c]pyridine-2,3-diamine]: the IC50 in test [1] was less than 0.2 µM; on IDO1 in HeLa cells, less than 0.2 µM; in test [2] it was greater than 2 µM.
Take `COc1cc2c(Nc3ccc(F)c(Cl)c3)c(N)oc2c(Br)n1` [Compound 172, 7-Bromo-N^3-(3-chloro-4-fluorophenyl)-5-methoxyfuro[2,3-c]pyridine-2,3-diamine]: the IC50 in test [1] is less than 0.2 µM; against IDO1 in HeLa cells it was less than 0.2 µM; in test [2], greater than 2 µM.
On to `COc1cc2c(Nc3ccc(F)c(Cl)c3)c(N)oc2c(-c2ccc(C#N)cc2)n1` [Compound 173, 4-(2-Amino-3-((3-chloro-4-fluorophenyl)amino)-5-methoxyfuro[2,3-c]pyridin-7-yl)benzonitrile], for which the IC50 in test [1] was less than 0.2 µM; against IDO1 in HeLa cells it was less than 0.2 µM; in test [2], greater than 2 µM.
For `COc1cc2c(Nc3ccc(F)c(Cl)c3)c(N)oc2c(-c2ccc(F)cc2)n1` [Compound 174, N^3-(3-chloro-4-fluorophenyl)-7-(4-fluorophenyl)-5-methoxyfuro[2,3-c]pyridine-2,3-diamine], the IC50 in test [1] is less than 0.2 µM; against IDO1 in HeLa cells it was 0.2 to 1 µM; in test [2] it was 0.5 to 2 µM.
As for `COc1cc2c(Nc3ccc(F)c(Cl)c3)c(N)oc2c(-c2ccc(C(N)=O)cc2)n1` [Compound 175, 4-(2-amino-3-((3-chloro-4-fluorophenyl)amino)-5-methoxyfuro[2,3-c]pyridin-7-yl)benzamide], the IC50 in test [1] is less than 0.2 µM; at IDO1 in HeLa cells, less than 0.2 µM; in test [2], greater than 2 µM.
For the compound `Nc1oc2c(F)nccc2c1Nc1ccc(F)c(Cl)c1` [Compound 176, N^3-(3-chloro-4-fluorophenyl)-7-fluorofuro[2,3-c]pyridine-2,3-diamine], the IC50 is less than 0.2 µM in test [1], less than 0.2 µM against IDO1 in HeLa cells and less than 0.5 µM in test [2].
Regarding `Nc1oc2cnc(Cl)cc2c1Nc1ccc(F)c(Cl)c1` [Compound 177, 5-Chloro-N3-(3-chloro-4-fluorophenyl)furo[2,3-c]pyridine-2,3-diamine], the IC50 in test [1] was less than 0.2 µM; against IDO1 in HeLa cells it was less than 0.2 µM; in test [2], 0.5 to 2 µM.
As to `Nc1oc2cc([N+](=O)[O-])ccc2c1Nc1ccc(F)c(Cl)c1` [Compound 179, N^3-(3-chloro-4-fluorophenyl)-6-nitrobenzofuran-2,3-diamine], the IC50 in test [1] was less than 0.2 µM; on IDO1 in HeLa cells, less than 0.2 µM; in test [2] it was 0.5 to 2 µM.
Regarding `Nc1oc2c(-c3ccncc3)nc(F)cc2c1Nc1ccc(F)c(Cl)c1` [Compound 180, N^3-(3-Chloro-4-fluorophenyl)-5-fluoro-7-(pyridin-4-yl)furo[2,3-c]pyridine-2,3-diamine], the half-inhibitory concentration (IC50) in test [1] was less than 0.2 µM; against IDO1 in HeLa cells, less than 0.2 µM; in test [2] it was 0.5 to 2 µM.
As to `Nc1oc2cnc(F)cc2c1Nc1ccc(F)c(Cl)c1` [Compound 181, N^3-(3-Chloro-4-fluorophenyl)-5-fluorofuro[2,3-c]pyridine-2,3-diamine], the concentration for half-maximal inhibition (IC50) is less than 0.2 µM in test [1], less than 0.2 µM at IDO1 in HeLa cells and less than 0.5 µM in test [2].
Take `N#Cc1nccc2c(Nc3ccccc3Cl)c(N)oc12` [Compound 182, 2-Amino-3-((2-chlorophenyl)amino)furo[2,3-c]pyridine-7-carbonitrile]: the IC50 was less than 0.2 µM in test [1], less than 0.2 µM on IDO1 in HeLa cells and greater than 2 µM in test [2].
Take `N#Cc1nccc2c(Nc3ccc(F)c(C(F)(F)F)c3)c(N)oc12` [Compound 183, 2-Amino-3-((4-fluoro-3-(trifluoromethyl)phenyl)amino)furo[2,3-c]pyridine-7-carbonitrile]: the concentration for half-maximal inhibition (IC50) in test [1] is less than 0.2 µM; against IDO1 in HeLa cells, less than 0.2 µM; in test [2], 0.5 to 2 µM.
With `N#Cc1nccc2c(Nc3ccc(F)c(F)c3)c(N)oc12` [Compound 185, 2-Amino-3-((3,4-difluorophenyl)amino)furo[2,3-c]pyridine-7-carbonitrile], the IC50 was 0.2 to 1 µM in test [1], less than 0.2 µM at IDO1 in HeLa cells and less than 0.5 µM in test [2].
In the same order, the values of `N#Cc1nccc2c(Nc3cc(F)cc(F)c3)c(N)oc12` [Compound 186, 2-Amino-3-((3,5-difluorophenyl)amino)furo[2,3-c]pyridine-7-carbonitrile] are greater than 1 µM, greater than 1 µM and 0.5 to 2 µM.
`Nc1oc2c(-c3ccncc3)nccc2c1Nc1cc(F)cc(F)c1` [Compound 187, N^3-(3,5-Difluorophenyl)-7-(pyridin-4-yl)furo[2,3-c]pyridine-2,3-diamine]: the results for the half-maximal inhibitory concentration (IC50) (in test [1]; at IDO1 in HeLa cells; in test [2]) were 0.2 to 1 µM, less than 0.2 µM and less than 0.5 µM, respectively.
`Nc1oc2c(-c3ccncc3)nc(F)cc2c1Nc1ccc(F)c(F)c1` [Compound 188, N^3-(3,4-Difluorophenyl)-5-fluoro-7-(pyridin-4-yl)furo[2,3-c]pyridine-2,3-diamine]: the IC50 in test [1] was less than 0.2 µM; against IDO1 in HeLa cells it was less than 0.2 µM; in test [2] it was 0.5 to 2 µM.
On to `Nc1oc2c(F)nccc2c1Nc1ccc(F)c(C(F)(F)F)c1` [Compound 189, 7-Fluoro-N^3-(4-fluoro-3-(trifluoromethyl)phenyl)furo[2,3-c]pyridine-2,3-diamine], for which the values for the IC50 (in test [1]; against IDO1 in HeLa cells; in test [2]) were less than 0.2 µM, less than 0.2 µM and 0.5 to 2 µM, respectively.
For `Nc1oc2c(F)nc(F)cc2c1Nc1ccc(F)c(Cl)c1` [Compound 190, N^3-(3-Chloro-4-fluorophenyl)-5,7-difluorofuro[2,3-c]pyridine-2,3-diamine], the IC50 in test [1] is less than 0.2 µM; against IDO1 in HeLa cells it was less than 0.2 µM; in test [2], 0.5 to 2 µM.
`Nc1oc2c(-c3cc(F)nc(F)c3)nccc2c1Nc1ccc(F)c(Cl)c1` [Compound 191, N^3-(3-Chloro-4-fluorophenyl)-7-(2,6-difluoropyridin-4-yl)furo[2,3-c]pyridine-2,3-diamine]: the results for the 50% inhibitory concentration (IC50) (in test [1]; against IDO1 in HeLa cells; in test [2]) were less than 0.2 µM, less than 0.2 µM and 0.5 to 2 µM, respectively.
Turning to `Nc1oc2c(-c3ccncc3)nccc2c1Nc1ccc(F)c(C(F)(F)F)c1` [Compound 192, N^3-(4-Fluoro-3-(trifluoromethyl)phenyl)-7-(pyridin-4-yl)furo[2,3-c]pyridine-2,3-diamine], the 50% inhibitory concentration (IC50) in test [1] was less than 0.2 µM; against IDO1 in HeLa cells it was less than 0.2 µM; in test [2] it was 0.5 to 2 µM.
On to `CNC(=O)c1cc(-c2nccc3c(Nc4ccc(F)c(Cl)c4)c(N)oc23)ccn1` [Compound 195, 4-(2-Amino-3-((3-chloro-4-fluorophenyl)amino)furo[2,3-c]pyridin-7-yl)-N-methylpicolinamide], for which the IC50 in test [1] is less than 0.2 µM; on IDO1 in HeLa cells, less than 0.2 µM; in test [2], 0.5 to 2 µM.
For `COc1ccccc1-c1nccc2c(Nc3ccc(F)c(F)c3)c(N)oc12` [Compound 196, N^3-(3,4-Difluorophenyl)-7-(2-methoxyphenyl)furo[2,3-c]pyridine-2,3-diamine], the 50% inhibitory concentration (IC50) is 0.2 to 1 µM in test [1], less than 0.2 µM on IDO1 in HeLa cells and less than 0.5 µM in test [2].
With `Nc1oc2c(-c3ccccc3Cl)nccc2c1Nc1ccc(F)c(F)c1` [Compound 197, 7-(2-Chlorophenyl)-N^3-(3,4-difluorophenyl)furo[2,3-c]pyridine-2,3-diamine], the IC50 in test [1] is less than 0.2 µM; on IDO1 in HeLa cells it was less than 0.2 µM; in test [2], less than 0.5 µM.
Turning to `Cc1cc(-c2nccc3c(Nc4ccc(F)c(F)c4)c(N)oc23)ccn1` [Compound 198, N^3-(3,4-Difluorophenyl)-7-(2-methylpyridin-4-yl)furo[2,3-c]pyridine-2,3-diamine], the IC50 in test [1] was less than 0.2 µM; against IDO1 in HeLa cells it was less than 0.2 µM; in test [2] it was less than 0.5 µM.
With `Nc1oc2c(-c3cccc(C(F)(F)F)c3)nccc2c1Nc1ccc(F)c(Cl)c1` [Compound 199, N^3-(3-Chloro-4-fluorophenyl)-7-(3-(trifluoromethyl)phenyl)furo[2,3-c]pyridine-2,3-diamine], the results for the IC50 (in test [1]; on IDO1 in HeLa cells; in test [2]) were less than 0.2 µM, less than 0.2 µM and greater than 2 µM, respectively.
On to `Nc1oc2c(N(c3ccccc3)c3ccccc3)nccc2c1Nc1ccc(F)c(Cl)c1` [Compound 200, N^3-(3-Chloro-4-fluorophenyl)-N^7,N^7-diphenylfuro[2,3-c]pyridine-2,3,7-triamine], for which the values for the IC50 (in test [1]; on IDO1 in HeLa cells; in test [2]) were 0.2 to 1 µM, less than 0.2 µM and greater than 2 µM, respectively.

By IC50 is commonly meant the midpoint of a concentration-inhibition curve.
